Patent publication US20140272041A1, “METHODS OF REDUCING PATHOGENS DURING PROCESSING OR POST-PROCESSING OF BEEF, POULTRY AND OTHER MEAT PRODUCTS” (BIRKO Corporation, priority 2009, published 2014)
Like-named read-outs stand apart in the source and are kept apart here.

Key:
E. coli ATCC 12435 = assay: Log kill / surviving titer in aqueous bacterial suspension, plating on TSA; type: cell-based, Escherichia coli; conditions: […] wt./wt. % WAC in 2.5% lactic acid, 15 seconds, 74 to 80 degrees F.
Procedure: The “reaction” (i.e. interaction of antimicrobial agent and the target organism) was initiated by the addition of bacteria to the antimicrobial solution. The reaction was allowed to proceed for the respective time periods listed in Table I (i.e., at least 15 seconds each) and was terminated at the end of that time by adding quench buffer comprising 3.2 M potassium phosphate buffer, pH 7.2. The sample then was evaluated using serial 10-fold dilutions into sterile phosphate buffer as needed to determine, on Tryptic Soy agar (“TSA”), the titer of surviving bacteria. TSA is a medium that allows the growth of most bacteria.
The reduction in the bacterial count is expressed as the “log kill” which is defined as log10 [initial cfu/ml]−log10 [remaining cfu/ml]; where “cfu” refers to “colony forming unit.” All log kills reported herein are positive “base 10.”). Inasmuch as the standard assay mixture contained only ca. 25×10^6 cfu initially (equivalent to 7.398 log) the theoretical maximum kill that can be measured with this assay system is ca. 7.4 log and the practical measuring limit is ca. 6 log. Therefore, high levels of log reduction were monitored by plating reaction mixtures directly (without dilution) onto agar medium. The results are reported in Table I and illustrated in graph format in FIG. 1. […] The tests were replicated with E. coli ATCC 43888, a pathogenic strain of E. coli O157:H7. […]
After incubation for 15 seconds at ambient temperature the reaction was quenched by addition of phosphate buffer and the titer of surviving bacteria was determined by plating on TSA as described in the previous examples. […] The amphoteric and zwitterionic surfactants, which carry a net positive charge under the conditions of the reaction mixture, caused enhancement of the log kill by lactic acid. All anionic surfactants tested caused substantial enhancement of the log kill by lactic acid.

[1] = tested on: E. coli ATCC 43888 (O157:H7); assay: Log kill in aqueous bacterial suspension, plating on TSA; type: cell-based, Escherichia coli
[2] = tested on: Salmonella enterica, ATCC 14028; assay: as above; type: cell-based; conditions: 15 seconds, c. 74° F.
Procedure: As before, reaction mixtures were incubated for 15 seconds at room temperature (c. 74° F.). The results are depicted in Table XII and graphed in FIG. 12.
However, in this example the effectiveness of such mixtures was tested against Salmonella enterica, ATCC 14028. […] The balance was water. Increasing amounts of these “reagents” were added to a series of reaction tubes.
As before each reaction was initiated by the addition of bacteria, incubated at ambient temperature for 15 seconds and terminated by addition of quench buffer. The tests were performed at room temperature. The bacterial titer of each mixture was determined by preparation and plating of serial dilutions on TSA. The results for both reagents are reported in Table XIII and graphed in FIG. 13.

[3] = tested on: Escherichia coli serotype O157:H7 (ATCC 43888); assay: Log reduction on inoculated meat samples by immersion
Procedure: Meat samples were allowed to equilibrate to ambient temperature (74° F.) and inoculated with 25 μl of a late log phase culture of either Escherichia coli serotype O157:H7 (ATCC 43888) or Salmonella enterica serovar Typhimurium (ATCC 14028). Samples were allowed to rest for 10 minutes for the bacteria to attach. After attachment the inoculated samples were immersed in the treatment solutions as detailed in each experiment described below. After immersion, meat samples were immediately placed into a sterile Whirlpack Bag with 10-15 ml of neutralizing buffer to inactivate any residual antimicrobial on the meat surface. Samples were massaged for 3 minutes to extract surviving bacteria from the meat. Bacterial counts in the fluid were enumerated by plating on Violet Red Bile Agar (E. coli) or Salmonella Shigella Agar (Salmonella) and counting colonies after at least 16-24 hours of incubation. […]

[4] = tested on: Salmonella enterica serovar Typhimurium (ATCC 14028); assay: as above; conditions: 5% (w/w) total acid (60% lactic+40% citric acid) + 1200 ppm SLS, meat samples immersed 3 minutes at 108° F. (Meat Experiment #43)
Procedure: Meat samples were allowed to equilibrate to ambient temperature (74° F.) and inoculated with 25 μl of a late log phase culture of either Escherichia coli serotype O157:H7 (ATCC 43888) or Salmonella enterica serovar Typhimurium (ATCC 14028). Samples were allowed to rest for 10 minutes for the bacteria to attach. After attachment the inoculated samples were immersed in the treatment solutions as detailed in each experiment described below. After immersion, meat samples were immediately placed into a sterile Whirlpack Bag with 10-15 ml of neutralizing buffer to inactivate any residual antimicrobial on the meat surface. Samples were massaged for 3 minutes to extract surviving bacteria from the meat. Bacterial counts in the fluid were enumerated by plating on Violet Red Bile Agar (E. coli) or Salmonella Shigella Agar (Salmonella) and counting colonies after at least 16-24 hours of incubation.
The meat samples described in Example 16 were treated with 5% (w/w) total acid (60% lactic+40% citric acid) with addition of 1200 ppm of the anionic surfactant sodium lauryl sulfate (SLS) for 3 minutes at 108° F.

[5] = 1200 ppm SLS, 5% total acid at ratio 4:6 citric acid:lactic acid, 2 minutes at 109-111° F., control 5% lactic acid only
[6] = 1400 ppm SLS added to 5% total acid 60:40 lactic:citric, 3 minutes at 109° F.

With `CCCCCCCCCCCCOS(=O)(=O)[O-].[Na+]` [Sodium Lauryl Sulfate, sodium lauryl sulfate] the “Log Kill (Lactic Acid + Surfactant)” value (E. coli ATCC 12435) was 6.43 log, the “Log Kill” value [1] was 4.8 log and the “in 2.5% Lactic Acid (Log Kill)” value [1] was 5.81 log. The “in […] Lactic Acid (Log Kill)” value [1] was 5.83 log, the “Log Kill” value ([1]; sodium lauryl sulfate 0.004 wt./wt. % in […] lactic acid, 15 seconds, 75 degrees F.) was 2.08 log and the “Log Kill” value ([1]; sodium lauryl sulfate 0.012 wt./wt. % in […] lactic acid, 15 seconds, 75 degrees F.) was 5.92 log. For the same compound, the “Log Kill” value ([1]; sodium lauryl sulfate 0.016 wt./wt. % in […] lactic acid, 15 seconds, 75 degrees F.) was 5.92 log, the “in 2.5% Lactic Acid (Log Kill)” value ([1]; sodium lauryl sulfate 0.02 wt./wt. % in 2.5% lactic acid) was 4.81 log and the “in 2.5% Lactic Acid (Log Kill)” value ([1]; sodium lauryl sulfate 0.04 wt./wt. % in 2.5% lactic acid) was 4.81 log. The “in […] Lactic Acid (Log Kill)” value ([1]; sodium lauryl sulfate 0.04 wt./wt. % in […] lactic acid, 15 seconds, 75 degrees F.) was 5.83 log, the “in 2.5% Lactic Acid (Log Kill)” value ([1]; sodium lauryl sulfate 0.06 wt./wt. % in 2.5% lactic acid) was 5.81 log and the “in […] Lactic Acid (Log Kill)” value ([1]; sodium lauryl sulfate 0.06 wt./wt. % in […] lactic acid, 15 seconds, 75 degrees F.) was 5.34 log. For the same compound, the “in 2.5% Lactic Acid (Log Kill)” value ([1]; sodium lauryl sulfate 0.10 wt./wt. % in 2.5% lactic acid) was 5.81 log, the “in […] Lactic Acid (Log Kill)” value ([1]; sodium lauryl sulfate 0.10 wt./wt. % in […] lactic acid, 15 seconds, 75 degrees F.) was 5.83 log and the “Log Kill” value ([2]; sodium lauryl sulfate 0.004 wt./wt. % in […] lactic acid) was 3.82 log. For the same compound, the “Log Kill” value ([2]; sodium lauryl sulfate 0.008 wt./wt. % in […] lactic acid) was 4.4 log, the “Log Kill” value ([2]; sodium lauryl sulfate 0.012 wt./wt. % in […] lactic acid) was 5.489 log and the “Log Kill” value ([2]; sodium lauryl sulfate 0.016 wt./wt. % in […] lactic acid) was 5.489 log. The “Log Kill” value ([2]; sodium lauryl sulfate 0.020 wt./wt. % in […] lactic acid) was 5.97 log, the “effect of increasing SLS concentration on kill by lactic acid” value ([3]; 4% (w/w) lactic acid with 0-1700 ppm sodium lauryl sulfate, 2 minutes at 108° F.) was “enhanced kill” and the “enhancement of reduction when SLS is included” value [3, 5] was “ca. 1.6 log”. For the same compound, the “increase of microbial reduction when SLS is included” value [3, 5] was 40 fold, the “enhancement of reduction when SLS is included” value [3, 6] was “ca. 1.6 log” and the “increase of microbial reduction when SLS is included” value [3, 6] was 40 fold. For the same compound, the “Log Reduction” value [4] was 3.28 log.
